Positions of bridges follow the written chain, without caps; N, C: chain ends. Residues, ends and D or L forms follow the SMILES beside them.
Molecular target: T1, AM1R (Homo sapiens, UniProt O60895+Q16602)
T1 construct: EYFP; ECFP; expressed in transfected cells; host or cells: HEK-293 (transient co-transfection)
Assay: Activity determination in vitro: cAMP/CRE-luciferase reporter assay in HEK293 cells transiently co-transfected with CLR and RAMP2
Format: cell-based
Settings: for Emax: HEK293, normalized to [G14]ADM(14-52); for EC50: HEK293 with CLR/RAMP2, CRE-luciferase, 3 h stimulation
Method: (1a) Activity Determination of Adrenomedullin Analogues in vitro
Cell Culture HEK-293 cells (human embryonic kidney cells) were cultured in Ham's F-12/DMEM (1/1; v/v) containing 15% FCS under humidified atmosphere at 37° C. and 5% CO2 in 75 cm^2 cell culture flasks.
Cells were cultured in 75 cm^2 flasks to 70-80% confluency. 45 μl Metafectene® Pro was diluted in 900 ρl Ham's F-12/DMEM (1/1; v/v) and incubated for 20 min at room temperature. 9 μg plasmid containing DNA of CLR fused to EYFP and 3 μg plasmid containing DNA of RAMP2 fused to ECFP were dissolved in 900 μl Ham's F-12/DMEM (1/1; v/v). The plasmid solution was mixed with the Metafectene® Pro solution and incubated for 25 min at room temperature. Medium was removed from the cells and replaced by 6 m1 Ham's F-12/DMEM (1/1; v/v) containing 15% FCS. After addition of transfection solution the cells were incubated for 3 h under humidified atmosphere at 37° C. and 5% CO2. For the second transfection 45 μl Metafectene® Pro was diluted in 900 μl Ham's F-12/DMEM (1/1; v/v) and incubated for 20 min at room temperature. 12 μg of pGL4.29[Luc2P/CRE/Hygro] plasmid containing DNA for the luciferase reporter gene luc2P (with CRE promotor region) were dissolved in 900 μl Ham's F-12/DMEM (1/1; v/v). The plasmid solution was mixed with the Metafectene® Pro solution and incubated for 25 min at room temperature. Medium was removed from the cells and replaced by 6 m1 Ham's F-12/DMEM (1/1; v/v) containing 15% FCS. After addition of transfection solution, the cells were incubated under humidified atmosphere at 37° C. and 5% CO2 over night.
For coating of 96-well-plates, 50 μl of a poly-D-lysine solution in DPBS (0.1 mg/ml) were pipetted in each well and incubated for 40 min. After removal of poly-D-lysine, each well was washed with 50 μl DPBS. Transiently transfected cells were detached from the cell culture flask by removal of the medium, 2-fold washing with 5 m1 DPBS and resuspending in 40 m1 Ham's F-12/DMEM (1/1; v/v) containing 15% FCS. 90,000 to 120,000 cells in 150 μl Ham's F-12/DMEM (1/1; v/v) containing 15% FCS were seeded per well and the plates were incubated under humidified atmosphere at 37° C. and 5% CO2 over night.
For each ligand, a serial dilution with eight different concentrations was prepared using Ham's F^12/DMEM (1/1; v/v). Before stimulation, the medium on the cells was replaced by 100 μl Ham's F^12/DMEM (1/1; v/v) and the plates were incubated for 1 h under humidified atmosphere at 37° C. and 5% CO2. For stimulation, the medium was removed and the cells were incubated for 3 h in 80 μl of ligand-solution under humidified atmosphere at 37° C. and 5% CO2. In addition 80 μl of a 5 μM forskolin solution in Ham's F-12/DMEM (1/1; v/v) was used as a positive control and 80 μl of Ham's F-12/DMEM (1/1; v/v) as a negative control. Each concentration and the controls were tested as triplicates.
After 3 h of stimulation, the solutions were removed and the cells were washed with 50 μl of Ham's F-12/DMEM (1/1; v/v) perwell. After 10 m incubation in 30 μl of Ham's F-12/DMEM (1/1; v/v) at room temperature, 30 μl of luciferase-solution (ONE-Glo™ Luciferase Assay System) was added and the luminescence was directly measured using an Infinite M200 (Tecan).
Data analysis of the luminescence measurement was carried out with GraphPad Prism 5. Therefore, the measured luminescence values of each plate were first corrected on the base of the respective average of forskolin stimulation. Afterwards they were normalized to [G14]ADM(14-52), which was used as standard peptide in every assay. After correction and normalization, data was analyzed using non-linear regression giving dose-response curves for each tested ligand.

T1 sequence (Q16602 23-461): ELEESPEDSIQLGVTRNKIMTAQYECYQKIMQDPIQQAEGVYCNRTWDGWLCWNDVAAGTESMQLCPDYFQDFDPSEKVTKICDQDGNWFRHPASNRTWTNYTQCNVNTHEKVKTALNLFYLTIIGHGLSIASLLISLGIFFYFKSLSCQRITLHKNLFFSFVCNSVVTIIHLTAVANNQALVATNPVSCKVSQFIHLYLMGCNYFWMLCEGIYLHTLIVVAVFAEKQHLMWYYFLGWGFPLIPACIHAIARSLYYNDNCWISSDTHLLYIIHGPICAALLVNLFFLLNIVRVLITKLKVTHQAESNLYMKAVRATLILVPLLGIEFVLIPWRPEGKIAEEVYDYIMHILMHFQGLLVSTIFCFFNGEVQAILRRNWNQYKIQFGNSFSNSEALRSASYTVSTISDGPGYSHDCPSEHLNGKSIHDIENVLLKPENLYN
T1 sequence (O60895 43-175): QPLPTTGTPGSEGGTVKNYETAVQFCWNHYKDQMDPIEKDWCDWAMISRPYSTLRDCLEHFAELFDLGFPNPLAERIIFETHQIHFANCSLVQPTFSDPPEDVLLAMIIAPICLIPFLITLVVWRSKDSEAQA

SMILES | Emax [%] | EC50 [nM]
CC[C@H](C)[C@H](NC(=O)[C@H](CCC(N)=O)NC(=O)[C@H](Cc1c[nH]cn1)NC(=O)[C@H](C)NC(=O)[C@H](CC(C)C)NC(=O)[C@H](CCCCN)NC(=O)[C@H](CCC(N)=O)NC(=O)[C@@H](NC(=O)[C@@H](NC(=O)[C@@H]1CSSC[C@H](NC(=O)CNC(=O)CN)C(=O)N[C@@H](CCCNC(=N)N)C(=O)N[C@@H](Cc2ccccc2)C(=O)NCC(=O)N[C@@H]([C@@H](C)O)C(=O)N1)[C@@H](C)O)C(C)C)C(=O)N[C@@H](Cc1ccc(O)cc1)C(=O)N[C@@H](CCC(N)=O)C(=O)N[C@@H](Cc1ccccc1)C(=O)N[C@H](C(=O)N[C@@H](CC(=O)O)C(=O)N[C@@H](CCCCN)C(=O)N[C@@H](CC(=O)O)C(=O)N[C@@H](CCCCN)C(=O)N[C@@H](CC(=O)O)C(=O)N[C@@H](CC(N)=O)C(=O)N[C@H](C(=O)N[C@@H](C)C(=O)N1CCC[C@H]1C(=O)N[C@H]1CCCCNC(=O)C[C@@H](C(=O)N2CCC[C@H]2C(=O)N[C@@H](CCC(N)=O)C(=O)NCC(=O)N[C@@H](Cc2ccc(O)cc2)C(N)=O)NC(=O)[C@H]([C@@H](C)CC)NC(=O)[C@H](CCCCN)NC(=O)[C@H](CO)NC1=O)C(C)C)[C@@H](C)O [Example 1, ((4R,7S,13S,16S,19R)-19-(2-(2-aminoacetamido)acetamido)-13-benzyl-16-(3-guanidinopropyl)-7-((R)-1-hydroxyethyl)-6,9,12,15,18-pentaoxo-1,2-dithia-5,8,11,14,17-pentaazacycloicosane-4-carbonyl)-L-threonyl-ADM(23-43)-((2S,5S,8S,11S,18S)-5-(4-aminobutyl)-18-(λ^2-azaneyl)-8-((S)-sec-butyl)-2-(hydroxymethyl)-3,6,9,13,19-pentaoxo-1,4,7,10,14-pentaazacyclononadecane-11-carbonyl)-L-prolyl-ADM(50-52)] (H-GGCRFGTCTVQKLAHQIYQFTDKDKDNVAPKSKIDPQGY-NH2; disulfide 3-8; lactam 31-35) | 102 ± 3 | 3.9
CC[C@H](C)[C@H](NC(=O)[C@H](CCC(N)=O)NC(=O)[C@H](Cc1c[nH]cn1)NC(=O)[C@H](C)NC(=O)[C@H](CC(C)C)NC(=O)[C@H](CCCCN)NC(=O)[C@H](CCC(N)=O)NC(=O)[C@@H](NC(=O)[C@@H](NC(=O)[C@@H]1CSSC[C@H](NC(=O)CNC(=O)CN)C(=O)N[C@@H](CCCNC(=N)N)C(=O)N[C@@H](Cc2ccccc2)C(=O)NCC(=O)N[C@@H]([C@@H](C)O)C(=O)N1)[C@@H](C)O)C(C)C)C(=O)N[C@@H](Cc1ccc(O)cc1)C(=O)N[C@@H](CCC(N)=O)C(=O)N[C@@H](Cc1ccccc1)C(=O)N[C@H](C(=O)N[C@@H](CC(=O)O)C(=O)N[C@@H](CCCCN)C(=O)N[C@@H](CC(=O)O)C(=O)N[C@@H](CCCCN)C(=O)N[C@@H](CC(=O)O)C(=O)N[C@@H](CC(N)=O)C(=O)N[C@H](C(=O)N[C@@H](C)C(=O)N1CCC[C@H]1C(=O)N[C@H]1CC(=O)NCCCC[C@@H](C(=O)N2CCC[C@H]2C(=O)N[C@@H](CCC(N)=O)C(=O)NCC(=O)N[C@@H](Cc2ccc(O)cc2)C(N)=O)NC(=O)[C@H]([C@@H](C)CC)NC(=O)[C@H](CCCCN)NC(=O)[C@H](CO)NC1=O)C(C)C)[C@@H](C)O [Example 2, ((4R,7S,13S,16S,19R)-19-(2-(2-aminoacetamido)acetamido)-13-benzyl-16-(3-guanidinopropyl)-7-((R)-1-hydroxyethyl)-6,9,12,15,18-pentaoxo-1,2-dithia-5,8,11,14,17-pentaazacycloicosane-4-carbonyl)-L-threonyl-ADM(23-43)-((3S,6S,9S,12S,20S)-6-(4-aminobutyl)-12-(λ^2-azaneyl)-3-((S)-sec-butyl)-9-(hydroxymethyl)-2,5,8,11,14-pentaoxo-1,4,7,10,15-pentaazacycloicosane-20-carbonyl)-L-prolyl-ADM(50-52)] (H-GGCRFGTCTVQKLAHQIYQFTDKDKDNVAPDSKIKPQGY-NH2; disulfide 3-8; lactam 31-35) | 91 ± 1 | 4.8
